Where two headings read alike, the source gives them in different places.
Legend:
SNL model = assay: Antiallodynic activity in the Chung model (SNL, Spinal Nerve Ligation; von Frey); type: in vivo, Sprague-Dawley rats
[1] = tested on: Post operation-induced pain model; assay: Antiallodynic activity on post operative pain-induced pain model (von Frey); type: in vivo, Sprague-Dawley rats; conditions: 0.5 h; for ED50: ip
Method: Male Sprague-Dawley rats (Orient Bio, Korea), 300-320 g, total of 201 rats were used (details in Table 7). Rats were habituated at least 3 days before surgery and free access to food and water (room temperature and humidity were maintained at […] and 50±10%, respectively). The process of performing the post-operation model's surgery was adapted from Brennan et al (1996). At first, rats with allodynia (threshold valueless than 8 g) were excluded in Pre-von Frey Test. During the post-operation surgery, rats were anesthetized under gaseous anesthesia with 2% isoflurane. Rats were laid face down on a plate fixed at 37° C. to prevent against hypothermia. The ipsilateral plantar aspect (left side) of the hind paw was prepared in a sterile manner with a 10% povidone-iodine solution. A longitudinal incision (1 cm) (FIG. 2-A) was made with a blade (number 11) through the skin and fascia of the ipsilateral plantar aspect of the foot, starting from 0.5 cm below the proximal edge of the heel and extending toward the toes. Rats' plantar muscles were elevated and incised longitudinally (FIG. 2-B). After hemostasis with gentle pressure, the skin was opposed with 2 mattress sutures (4-0 Dafilon) (FIG. 2-C). The wound site was covered with a 10% povidone-iodine solution gauze and injected with antibiotics (gentamicin, 8 mg/kg, ip). The sutures were removed under halothane anesthesia approximately 30 hours later, at the end of post-operative day 1.
After 2-3 days of recovery, rats with a good response (threshold less than 4 g) in Pre-von Frey Test were selected. According to this response, we made three groups with each group having equal average responses: Group 1, post-operation and drug treated; Group 2, post-operation and vehicle treated; Group 3, no post-operation and vehicle treated. In this study, Group 3 was the sham control (positive) group. The group 2 was used to check for possible failures to generate post-operative pain.
For efficacy measure, the threshold value of group C was assigned 100% efficacy, and the percentage of the threshold values of group A compared to group C (for each different dose level) were calculated as the efficacies. Base on these efficacy values, ED50 was calculated using log fitting. If there was no clear ED50, then we marked the percent efficacy at the highest tested dose or larger than highest tested dose.
For pain threshold test, all animals were placed in a stainless steel meshed chamber and habituated for 30 min in the test box. The tactile sensitivity of the ipsilateral hind paw was measured using the up-and-down method (Dixon, 1980) with seven von Frey monofilaments (0.4, 1, 2, 4, 6, 8, and 15 g) using 3 trials. The 50% paw withdrawal threshold for each paw was calculated using the following formula: [Xth] log=[vFr] log+ky, where [vFr] is the force of the last von Frey filament used, k=0.2249 which is the average interval (in log units) between the von Frey monofilaments, y which is a value that depends upon the pattern of withdrawal responses, and Xth which is the threshold value (Dixon, 1980).
Drugs were dissolved 30% PEG400 for example 60, 0.9% saline for Pregabalin, 20% Tween80 for Tylenol, 0.9% saline for Topiramate. These vehicles were selected depending on the compound's solubility. Intraperitoneal injection (5 μl/g) was done for all drugs.
The relative values compared to the sham (% control) were calculated and shown in Table 8, which show an antiallodynic effect of the compound of examples on Post operation-induced pain model in rats.

[2] = Rattus norvegicus, po, 1 h, read-out: SNL model: ED50 mg/kg
[3] = Rattus norvegicus, read-out: Post Operation: ED50 mg/kg

SMILES | ED50 (SNL model; [2]) | ED50 [1, 3] | further results
CC1(C)Oc2ccccc2[C@@H](COS(N)(=O)=O)O1 [Example 2, ((S)-2,2-dimethyl-4H-benzo[d][1,3]dioxin-4-yl)methyl sulfamate] | – | – | ED50 (SNL model; rat, oral, 1 h, read-out: SNL model: ED50): 4.5 mg/kg; ED50 ([1]; rat, intraperitoneal, read-out: Post Operation: ED50): 14.9 mg/kg
CC1(C)Oc2ccccc2[C@H](COS([NH-])(=O)=O)O1.[Na+] [Example 58, Sodium (R)-(((2,2-dimethyl-4H-benzo[d][1,3]dioxin-4-yl)methoxy)sulfonyl)amide Trihydrate] | 8.9 mg/kg | 19.4 mg/kg | –
CC1(C)Oc2ccccc2C(COS([NH-])(=O)=O)O1.[Na+] (stereo not shown) [Example 60, Sodium (((2,2-dimethyl-4H-benzo[d][1,3]dioxin-4-yl)methoxy)sulfonyl)amide Trihydrate] | 3.5 mg/kg | 18.9 mg/kg | –
[NH-]S(=O)(=O)OC[C@H]1OC2(CCCC2)Oc2ccccc21.[Na+] [Example 65, Sodium (S)-(((4H-spiro[benzo[d][1,3]dioxine-2,1′-cyclopentan]-4-yl)methoxy)sulfonyl)amide] | – | 31.8 mg/kg | ED50 (SNL model; Rattus norvegicus, po, 0.5 h, read-out: SNL model: ED50 mg/kg): 3.4 mg/kg
CC1(C)Oc2ccccc2[C@H](COS([NH-])(=O)=O)O1.[K+] [Example 70, Potassium (R)-(((2,2-dimethyl-4H-benzo[d][1,3]dioxin-4-yl)methoxy)sulfonyl)amide] | – | – | response vs control in vivo at 3.5 mg/kg (SNL model; Rattus norvegicus, po, 1 h, read-out: SNL model: effect (%) compared to control, rat, oral, 3.5 mg/kg administered, 1 h): 46.7%; Post Operation: effect (%) compared to control ([1]; rat, intraperitoneal, 18.9 mg/kg administered): (22.0%, 0.5 h)

Reference: patent publication US10081615B2, “Sulfamate derivative compounds for use in treating or alleviating pain” (Bio-Pharm Solutions Co., Ltd., priority 2013, dated 2018)
